From the NIST ThermoML archive (doi:10.1016/j.tca.2006.01.020)

Assay: molar heat capacity at constant pressure
Conditions: 101.33 kPa, Crystal, Small (less than 1 g) adiabatic calorimetry

[Ba+2].[O-2].[O-2].[O-2].[Zr+4] [barium zirconium(IV) oxide]
Conditions | molar heat capacity at constant pressure [J/K/mol]
1.659 K | 0.00346
1.662 K | 0.00357
1.664 K | 0.00348
1.666 K | 0.00351
1.671 K | 0.00353
1.675 K | 0.00351
1.677 K | 0.00363
1.683 K | 0.00349
1.689 K | 0.00342
1.699 K | 0.00335
1.722 K | 0.00326
1.735 K | 0.00341
1.744 K | 0.00345
1.763 K | 0.00333
2.098 K | 0.00292
2.107 K | 0.00345
2.124 K | 0.00373
2.15 K | 0.0036
2.163 K | 0.00346
2.173 K | 0.00343
2.185 K | 0.00389
2.198 K | 0.00355
2.209 K | 0.00288
2.216 K | 0.00344
2.228 K | 0.00346
2.261 K | 0.00391
2.281 K | 0.0035
2.325 K | 0.00371
2.372 K | 0.0038
2.389 K | 0.00365
2.42 K | 0.00384
2.515 K | 0.00414
2.651 K | 0.00484
2.824 K | 0.00516
2.831 K | 0.00564
2.919 K | 0.00559
2.952 K | 0.00633
3.106 K | 0.00618
3.116 K | 0.00718
3.242 K | 0.00714
3.366 K | 0.00794
3.538 K | 0.00865
3.656 K | 0.00903
3.873 K | 0.00964
3.987 K | 0.0104
4.096 K | 0.0108
4.199 K | 0.0112
4.473 K | 0.0129
4.617 K | 0.0156
4.702 K | 0.0156
4.777 K | 0.0158
4.851 K | 0.0176
4.929 K | 0.0183
5.008 K | 0.02
5.086 K | 0.019
5.165 K | 0.021
5.246 K | 0.0226
5.329 K | 0.0234
5.41 K | 0.0243
5.489 K | 0.0216
5.545 K | 0.0289
5.64 K | 0.0269
5.717 K | 0.0288
5.79 K | 0.0301
5.87 K | 0.0306
5.93 K | 0.0325
6.02 K | 0.0336
6.08 K | 0.0338
6.19 K | 0.0357
6.27 K | 0.0366
6.36 K | 0.0388
6.45 K | 0.0407
6.54 K | 0.0424
6.62 K | 0.044
6.72 K | 0.0458
6.8 K | 0.0494
6.9 K | 0.0501
6.98 K | 0.0511
7.08 K | 0.0539
7.16 K | 0.0547
7.26 K | 0.0547
7.36 K | 0.0593
7.47 K | 0.0629
7.56 K | 0.0638
7.67 K | 0.0662
7.77 K | 0.07
7.89 K | 0.0767
7.98 K | 0.076
8.1 K | 0.0841
8.2 K | 0.083
8.32 K | 0.091
8.43 K | 0.0913
8.55 K | 0.101
8.67 K | 0.102
8.8 K | 0.112
8.91 K | 0.111
9.05 K | 0.127
9.12 K | 0.121
9.26 K | 0.138
9.33 K | 0.13
9.47 K | 0.148
9.6 K | 0.144
9.75 K | 0.163
9.88 K | 0.159
10 K | 0.168
10.01 K | 0.17
10.18 K | 0.188
10.31 K | 0.186
10.47 K | 0.208
10.6 K | 0.205
10.76 K | 0.228
10.94 K | 0.235
11.09 K | 0.245
11.27 K | 0.27
11.45 K | 0.278
11.62 K | 0.29
11.8 K | 0.317
12 K | 0.341
12.15 K | 0.34
12.35 K | 0.385
12.54 K | 0.383
12.72 K | 0.416
12.92 K | 0.449
13.12 K | 0.466
13.32 K | 0.5
13.53 K | 0.54
13.73 K | 0.561
13.93 K | 0.599
14.13 K | 0.628
14.34 K | 0.692
14.54 K | 0.702
14.75 K | 0.772
14.97 K | 0.803
15.18 K | 0.858
15.39 K | 0.892
15.59 K | 0.951
15.81 K | 1.02
16.03 K | 1.06
16.24 K | 1.13
16.46 K | 1.2
16.68 K | 1.25
16.9 K | 1.32
17.12 K | 1.4
17.34 K | 1.46
17.56 K | 1.54
17.79 K | 1.63
18.03 K | 1.72
18.26 K | 1.77
18.47 K | 1.87
18.69 K | 1.97
18.92 K | 2.07
19.15 K | 2.15
19.38 K | 2.27
19.62 K | 2.37
19.86 K | 2.44
20 K | 2.564
20.07 K | 2.59
20.32 K | 2.69
20.56 K | 2.75
20.77 K | 2.91
21 K | 3.03
21.25 K | 3.1
21.47 K | 3.28
21.71 K | 3.37
21.95 K | 3.48
22.17 K | 3.66
22.41 K | 3.78
22.67 K | 3.87
22.9 K | 3.98
23.11 K | 4.17
23.34 K | 4.32
23.59 K | 4.41
23.83 K | 4.56
24.06 K | 4.76
24.31 K | 4.87
24.56 K | 4.97
24.78 K | 5.12
25 K | 5.34
25.24 K | 5.49
25.5 K | 5.6
25.74 K | 5.74
25.96 K | 5.93
26.19 K | 6.12
26.44 K | 6.29
26.7 K | 6.36
26.94 K | 6.51
27.15 K | 6.76
27.39 K | 6.91
27.68 K | 6.91
27.72 K | 7.04
28.07 K | 7.4
28.32 K | 7.57
28.59 K | 7.63
28.82 K | 7.79
29.03 K | 8.03
29.26 K | 8.25
30 K | 8.651
30.07 K | 8.73
30.34 K | 8.73
30.45 K | 8.93
31.03 K | 9.36
31.64 K | 9.8
32.28 K | 10.4
32.94 K | 10.9
33.63 K | 11.4
34.33 K | 11.9
35.05 K | 12.4
35.78 K | 13
36.53 K | 13.5
37.28 K | 14.1
38.03 K | 14.7
38.8 K | 15.3
39.58 K | 15.9
40 K | 16.19
40.37 K | 16.4
41.18 K | 17.1
42 K | 17.7
42.84 K | 18.3
43.69 K | 19
44.56 K | 19.6
45.45 K | 20.2
46.36 K | 21
47.29 K | 21.6
48.24 K | 22.3
49.21 K | 23
50 K | 23.59
50.25 K | 23.7
51.26 K | 24.4
52.27 K | 25.2
53.27 K | 25.9
54.27 K | 26.6
55.27 K | 27.3
56.27 K | 28.1
57.27 K | 28.8
58.26 K | 29.5
59.25 K | 30.2
60 K | 30.79
60.25 K | 31
61.24 K | 31.6
62.3 K | 32.5
63.25 K | 33.2
64.23 K | 33.8
65.21 K | 34.5
66.2 K | 35.2
67.19 K | 35.9
68.19 K | 36.2
69.19 K | 36.9
70 K | 37.33
71.18 K | 38.3
72.18 K | 38.8
73.19 K | 39.5
74.19 K | 40
75.18 K | 40.7
76.18 K | 41.3
77.18 K | 42
78.18 K | 42.5
79.18 K | 43.1
80 K | 43.22
80.18 K | 43.6
81.18 K | 44.3
82.18 K | 44.7
83.18 K | 45.1
84.17 K | 45.7
85.17 K | 46.3
86.17 K | 46.7
87.17 K | 47.2
87.74 K | 46.8
89.5 K | 48.5
90 K | 48.58
91.29 K | 49.3
93.12 K | 50.1
94.99 K | 51.3
96.9 K | 52.1
98.84 K | 52.7
100 K | 53.49
100.82 K | 53.7
102.81 K | 54.6
104.8 K | 55.6
106.79 K | 56.6
108.78 K | 57.5
110.77 K | 58.4
112.76 K | 59.4
114.75 K | 60.3
116.74 K | 61.2
118.72 K | 62
120 K | 62.3
120.69 K | 62.8
122.66 K | 63.7
124.65 K | 64.5
126.64 K | 65.3
128.63 K | 66.1
130.62 K | 66.8
132.27 K | 67.5
133.6 K | 68
134.94 K | 68.5
136.28 K | 69
137.64 K | 69.5
139.02 K | 70
140 K | 70.04
140.41 K | 70.1
141.81 K | 70.6
143.23 K | 71.1
144.66 K | 71.7
146.11 K | 72.2
147.57 K | 72.7
149.04 K | 73.2
150.53 K | 73.9
152.03 K | 74.3
153.55 K | 74.9
155.09 K | 75.3
156.64 K | 75.9
158.2 K | 76.3
159.79 K | 76.9
160 K | 76.91
161.38 K | 77.3
163 K | 77.9
164.63 K | 78.4
166.26 K | 78.9
167.93 K | 79.4
169.61 K | 79.9
171.3 K | 80.4
173.01 K | 81
174.74 K | 81.4
176.49 K | 82
178.25 K | 82.3
180 K | 82.99
180.03 K | 83
181.83 K | 83.5
183.65 K | 84.1
185.48 K | 84.7
187.34 K | 85.1
189.21 K | 85.5
191.1 K | 86.2
193 K | 86.7
194.93 K | 87
196.88 K | 87.9
198.84 K | 88
200 K | 88.29
200.83 K | 88.7
202.81 K | 89
204.8 K | 89.7
206.78 K | 90.5
208.76 K | 90.8
210.75 K | 91.3
212.73 K | 92.4
214.71 K | 91.7
216.7 K | 92.1
218.69 K | 92.5
220 K | 92.87
220.66 K | 93
222.65 K | 93.4
224.62 K | 94
226.6 K | 94.3
228.58 K | 94.9
230.56 K | 95.7
232.54 K | 95.8
234.52 K | 95.9
236.49 K | 96.5
238.47 K | 96.6
240 K | 96.81
240.44 K | 97.1
242.41 K | 97.6
244.39 K | 97.6
246.36 K | 98.4
248.33 K | 98.2
250.31 K | 98.9
252.27 K | 99.4
254.25 K | 99.7
256.22 K | 99.7
258.19 K | 99.8
260 K | 100.3
260.16 K | 100.3
262.12 K | 100.7
264.08 K | 100.7
266.04 K | 101.8
268.01 K | 102.2
269.99 K | 101.6
271.94 K | 102.6
273.9 K | 103
275.86 K | 103.2
277.83 K | 103.3
279.79 K | 103.8
280 K | 103.7
281.74 K | 104.6
283.71 K | 105.2
285.68 K | 105
287.63 K | 105
289.59 K | 105.2
291.54 K | 107
293.51 K | 106.2
295.49 K | 107.4
297.42 K | 106.6
298.15 K | 107
299.39 K | 106.6
300 K | 107.4
301.32 K | 107.9
